# Test results taken from patent publication US20160102074A1, “SUBSTITUTED AMIDE COMPOUNDS” (PFIZER INC., priority 2014, published 2016).
# System: human PCSK9
# Test: Cell Free PCSK9 Assay (PCSK9-luciferase mRNA translation in HeLa lysate)
# Format: biochemical
# Conditions: PCSK9-luciferase RNA, 30° C. for 45 minutes, top concentration 100 μM
# Procedure: As defined herein inhibition of translation of PCSK9 mRNA to PCSK9 protein is determined by the “Cell Free PCSK9 Assay” provided herein in the specification. This “Cell Free PCSK9 Assay” is specific to the production of PCSK9 protein from PCSK9 mRNA and therefore detects inhibitors of this translational process rather than other mechanisms by which PCSK9 protein may be reduced.
# In order to eliminate the permeability barrier inherent to the WT7 cell-based assays a cell-free system was also established to assess compound activitiy. A sequence containing the full length human PCSK9 (NCBI reference identifier, NM_174936.3, where coding sequence start annotated at position 363) along with 84 additional 3′ nucleotides, comprising a V5 tag and polylinker followed by an in frame modified firefly luciferase reporter (corresponding to nucleotide positions 283-1929 of pGL3, GenBank reference identifier JN542721.1) was cloned into the pT7CFE1 expression vector (ThermoScientific). The construct was then in-vitro transcribed using the MEGAscript T7 Kit (Life Technologies) and RNA subsequently purified incorporating the MEGAclear Kit (Life Technologies) according to manufacturer's protocols. HeLa cell lysates were prepared following the protocols described by Mikami (reference is Cell-Free Protein Synthesis Systems with Extracts from Cultured Human Cells, S. Mikami, T. Kobayashi and H. Imataka; from Methods in Molecular Biology, vol. 607, pages 43-52, Y. Endo et al. (eds.), Humana Press, 2010) with the following modifications. Cells were grown in a 20 L volume of CD293 medium (Gibco 11765-054) with Glutamax increased to 4 mM, penicillin at 100 U/mL and other additions as previously described by Mikami. Growth was in a 50 L wavebag at a rocker speed of 25 rpm and angle 6.1 with 5% CO2 and 0.2 LPM flow rate with cells harvested at a density of 2-2.5e6/mL. Lysates additionally contained 1 tablet of Roche cOmplete-EDTA protease inhibitors per 50 mL with tris(2-carboxyethyl)phosphine (Biovectra) substituted for dithiothreitol, and were clarified by an additional final centrifugation at 10,000 rpm in a Sorvall SS34 rotor at 4° C. for 10 minutes. Compound screening was performed in 384-well plates in an eleven point, 0.5 log dilution format at a top test compound concentration of 100 μM in a final volume of 0.5% DMSO. In additional to these test compound conditions each screening plate also included wells that contained 100 μM of compound example 16 (as depicted in WO2014170786; N-(3-chloropyridin-2-yl)-N-[(3R)-piperidin-3-yl]-4-(3H-[1,2,3]triazolo[4,5-b]pyridin-3-yl)benzamide) as a positive assay control defined as high percent effect, HPE, as well as wells containing media in 0.5% DMSO as a negative treatment control defined as zero percent effect, ZPE. Compounds were incubated at 30° C. for 45 minutes in a solution containing 0.1 μg of purified, in-vitro transcribed RNA together with the cell-free reaction mixture (consisting of 1.6 mM Mg and 112 mM K salts, 4.6 mM tris(2-carboxyethyl)phosphine (Biovectra), 5.0 μL HeLa lysate, 0.2 μL RNAsin (Promega) and 1.0 μL energy mix (containing 1.25 mM ATP (Sigma), 0.12 mM GTP (Sigma), 20 mM creatine phosphate (Santa Cruz), 60 μg/mL creatine phosphokinase (Sigma), 90 μg/mL tRNA (Sigma) and the 20 amino acids (Life Technologies) at final concentrations described by Mikami) and brought up in water to a final volume of 10 μL in water. Upon assay completion 1 μL from each reaction solution was removed and transferred to a second 384-well Optiplate (Perkin Elmer) containing 24 μL of SteadyGlo (Promega) and signal intensity was measured on the Envision (Perkin Elmer) using the enhanced luminescence protocol. To determine compound IC50 the data for HPE and ZPE control wells were first analyzed and the mean, standard deviation and Z prime calculated for each plate. The test compound data were converted into percent effect, using the ZPE and HPE controls as 0% and 100% activity, respectively, applying Equation 1 above. […]
row,Structure (SMILES),IC50 [µM]
1,"Cn1ncc(-c2ccc(C(=O)N(c3ncccc3Cl)[C@@H]3CCCNC3)cc2F)c1-c1nn[nH]n1 [Example 3, N-(3-chloropyridin-2-yl)-3-fluoro-4-[1-methyl-5-(2H-tetrazol-5-yl)-1H-pyrazol-4-yl]-N-[(3R)-piperidin-3-yl]benzamide]",2.8
2,"CCOC(=O)O[C@@H](C)n1nnnc1-c1c(-c2ccc(C(=O)N(c3ncccc3Cl)[C@@H]3CCCNC3)cc2)cnn1C [Example 6, ethyl (S)-1-{5-[1-methyl-4-(4-{(3-chloropyridin-2-yl)[(3R)-piperidin-3-yl]carbamoyl}phenyl)-1H-pyrazol-5-yl]-1H-tetrazol-1-yl}ethyl carbonate]",10.3
3,"CCOC(=O)O[C@@H](C)n1nnnc1-c1c(-c2ccc(C(=O)N(c3ncccc3C)[C@@H]3CCCNC3)cc2)cnn1C [Example 5a, ethyl (S)-1-{5-[1-methyl-4-(4-{(3-methylpyridin-2-yl)[(3R)-piperidin-3-yl]carbamoyl}phenyl)-1H-pyrazol-5-yl]-1H-tetrazol-1-yl}ethyl carbonate]",8.2
4,"CCOC(=O)O[C@@H](C)n1nnnc1-c1c(-c2ccc(C(=O)N(c3ncccc3Cl)[C@@H]3CCCNC3)cc2F)cnn1C [Example 7, ethyl (S)-1-{5-[4-(4-{(3-chloropyridin-2-yl)[(3R)-piperidin-3-yl]carbamoyl}-2-fluorophenyl)-1-methyl-1H-pyrazol-5-yl]-1H-tetrazol-1-yl}ethyl carbonate]",13.4
5,"CCOC(=O)O[C@@H](C)n1nnnc1-c1c(-c2ccc(C(=O)N(c3ncccc3C)[C@@H]3CCCNC3)nc2)cnn1C [Example 9, ethyl (S)-1-{5-[1-methyl-4-(6-{(3-methylpyridin-2-yl)[(3R)-piperidin-3-yl]carbamoyl}pyridin-3-yl)-1H-pyrazol-5-yl]-1H-tetrazol-1-yl}ethyl carbonate]",58.9
6,"CCOC(=O)O[C@@H](C)n1nnnc1-c1c(-c2ccc(C(=O)N(c3ncccc3C)[C@@H]3CCCNC3)cc2F)cnn1C [Example 8, ethyl (S)-1-{5-[4-(4-{(3-methylpyridin-2-yl)[(3R)-piperidin-3-yl]carbamoyl}-2-fluorophenyl)-1-methyl-1H-pyrazol-5-yl]-1H-tetrazol-1-yl}ethyl carbonate]",11
7,"CCOC(=O)O[C@H](C)n1nnnc1-c1c(-c2ccc(C(=O)N(c3ncccc3C)[C@@H]3CCCNC3)cc2)cnn1C [Example 5b, ethyl (R)-1-{5-[1-methyl-4-(4-{(3-methylpyridin-2-yl)[(3R)-piperidin-3-yl]carbamoyl}phenyl)-1H-pyrazol-5-yl]-1H-tetrazol-1-yl}ethyl carbonate]",6.4
8,"CCOC(=O)O[C@@H](C)n1nnnc1-c1c(-c2ccc(C(=O)N(c3ncccc3Cl)[C@@H]3CCCNC3)nc2)cnn1C [Example 10, ethyl (S)-1-{5-[4-(6-{(3-chloropyridin-2-yl)[(3R)-piperidin-3-yl]carbamoyl}pyridin-3-yl)-1-methyl-1H-pyrazol-5-yl]-1H-tetrazol-1-yl}ethyl carbonate]",> 74
